Measured values published in patent US8716303B2, “N-(hetero)aryl-pyrrolidine derivatives of pyrazol-4-yl-pyrrolo[2,3-d]pyrimidines and pyrrol-3-yl-pyrrolo[2,3-d]pyrimidines as janus kinase inhibitors” (Incyte Corporation, priority 2009, dated 2014).
Where a name gives a salt, the structure may show the parent alone.

Key:
Jak2 (a.a. 828-1132) = molecular target: T1, Jak2 (a.a. 828-1132) (Homo sapiens, UniProt O60674); assay: In vitro JAK kinase assay (HTRF, phosphorylation of a biotinylated peptide), JAK2, reported as JAK2/JAK1 ratio; format: biochemical
T1 construct: Jak2 (a.a. 828-1132); His tag (N); made in house; host or cells: insect cells (baculovirus)
Method: (§1) Compounds herein were tested for inhibitory activity of JAK targets according to the following in vitro assay described in Park et al., Analytical Biochemistry 1999, 269, 94-104. The catalytic domains of human JAK1 (a.a. 837-1142), Jak2 (a.a. 828-1132) and Jak3 (a.a. 781-1124) with an N-terminal His tag were expressed using baculovirus in insect cells and purified. The catalytic activity of JAK1, JAK2 or JAK3 was assayed by measuring the phosphorylation of a biotinylated peptide. The phosphorylated peptide was detected by homogenous time resolved fluorescence (HTRF). IC50s of compounds were measured for each kinase in the 40 microL reactions that contain the enzyme, ATP and 500 nM peptide in 50 mM Tris (pH 7.8) buffer with 100 mM NaCl, 5 mM DTT, and 0.1 mg/mL (0.01%) BSA. The ATP concentration in the reactions was 90 μM for Jak1, 30 μM for Jak2 and 3 μM for Jak3 for Km conditions. For the 1 mM IC50 measurements, ATP concentration in the reactions was 1 mM. Reactions were carried out at RT for 1 h and then stopped with 20 μL 45 mM EDTA, 300 nM SA-APC, 6 nM Eu-Py20 in assay buffer (Perkin Elmer, Boston, Mass.). Binding to the Europium labeled antibody took place for 40 min and HTRF signal was measured on a Fusion plate reader (Perkin Elmer, Boston, Mass.).
(§2) Compounds herein were tested for inhibitory activity of JAK1 and JAK2 targets according to the assay of Example A (experiments run at Km or 1 mM as indicated). The symbol “+” indicates an IC50<50 nM; the symbol “++” indicates an IC50≧50 and ≦100 nM; and the symbol “+++” indicates an IC50>100 and ≦500 nM.

[1] = molecular target: T2, human JAK1 (a.a. 837-1142) (Homo sapiens, UniProt P23458); assay: In vitro JAK kinase assay (HTRF, phosphorylation of a biotinylated peptide), JAK1; format: biochemical
T2 construct: human JAK1 (a.a. 837-1142); His tag (N); made in house; host or cells: insect cells (baculovirus)
Method: as §1, §2

[2] = Assay Conditions Km (ATP 90 μM for Jak1, 30 μM for Jak2)
[3] = Assay Conditions Km (ATP 90 μM for Jak1)

T2 sequence (P23458 849-1154): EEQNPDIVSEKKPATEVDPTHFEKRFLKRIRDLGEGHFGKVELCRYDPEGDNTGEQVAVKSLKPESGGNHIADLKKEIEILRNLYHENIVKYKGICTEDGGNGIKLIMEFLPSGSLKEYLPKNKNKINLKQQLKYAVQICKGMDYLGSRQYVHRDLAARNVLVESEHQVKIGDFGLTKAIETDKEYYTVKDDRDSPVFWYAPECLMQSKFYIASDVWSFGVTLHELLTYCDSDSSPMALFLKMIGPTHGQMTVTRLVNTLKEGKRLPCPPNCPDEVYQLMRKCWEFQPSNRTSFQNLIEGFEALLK
T1 sequence (O60674 828-1132): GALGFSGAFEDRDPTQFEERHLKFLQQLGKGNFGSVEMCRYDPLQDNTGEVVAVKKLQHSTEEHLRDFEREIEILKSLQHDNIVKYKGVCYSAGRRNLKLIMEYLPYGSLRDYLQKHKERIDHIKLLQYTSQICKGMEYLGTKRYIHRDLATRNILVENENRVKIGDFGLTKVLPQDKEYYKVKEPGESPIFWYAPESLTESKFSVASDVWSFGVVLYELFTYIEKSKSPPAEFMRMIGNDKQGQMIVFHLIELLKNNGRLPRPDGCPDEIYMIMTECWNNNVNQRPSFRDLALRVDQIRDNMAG

SMILES	JAK2/JAK1 IC50 ratio (Jak2 (a.a. 828-1132); Assay Conditions 1 mM ATP)	IC50 ([1]; Assay Conditions 1 mM ATP) [nM]	JAK2/JAK1 IC50 ratio (Jak2 (a.a. 828-1132); [2])	IC50 [1, 3] [nM]
N#CC[C@@H]([C@H]1CCN(c2ncc3ncsc3n2)C1)n1cc(-c2ncnc3[nH]ccc23)cn1 [Example 102, (3S)-3-[4-(7H-pyrrolo[2,3-d]pyrimidin-4-yl)-1H-pyrazol-1-yl]-3-[(3S)-1-[1,3]thiazolo[5,4-d]pyrimidin-5-ylpyrrolidin-3-yl]propanenitrile bis(trifluoroacetate)]	12.8	< 50		
N#CC[C@@H]([C@H]1CCN(c2ncc(C(F)F)nc2C#N)C1)n1cc(-c2ncnc3[nH]ccc23)cn1 [Example 138, 3-((3S)-3-{(1S)-2-cyano-1-[4-(7H-pyrrolo[2,3-d]pyrimidin-4-yl)-1H-pyrazol-1-yl]ethyl}pyrrolidin-1-yl)-6-(difluoromethyl)pyrazine-2-carbonitrile trifluoroacetate]	17.5	< 50		
Cc1cnc(N2CC[C@H]([C@H](CC#N)n3cc(-c4ncnc5[nH]ccc45)cn3)C2)c(C#N)n1 [Example 145, 3-((3S)-3-{(1S)-2-cyano-1-[4-(7H-pyrrolo[2,3-d]pyrimidin-4-yl)-1H-pyrazol-1-yl]ethyl}pyrrolidin-1-yl)-6-methylpyrazine-2-carbonitrile trifluoroacetate]	>11.1	< 50		
N#CCC(C1CCN(c2nc3cc(F)cnc3o2)C1)n1cc(-c2ncnc3[nH]ccc23)cn1 (single isomer, unassigned) [Example 15, 3-[1-(6-fluoro[1,3]oxazolo[5,4-b]pyridin-2-yl)pyrrolidin-3-yl]-3-[4-(7H-pyrrolo[2,3-d]pyrimidin-4-yl)-1H-pyrazol-1-yl]propanenitrile]			6.8	< 50
N#CCC(C1CCN(c2ncc3c(c2C#N)SCC3)C1)n1ccc(-c2ncnc3[nH]ccc23)c1 (single isomer, unassigned) [Example 174-2, 6-(3-{2-cyano-1-[3-(7H-pyrrolo[2,3-d]pyrimidin-4-yl)-1H-pyrrol-1-yl]ethyl}pyrrolidin-1-yl)-2,3-dihydrothieno[3,2-c]pyridine-7-carbonitrile]	11.1	< 50		
N#CCC(C1CCN(c2nc3cccc(C#N)c3o2)C1)n1cc(-c2ncnc3[nH]ccc23)cn1 (single isomer, unassigned) [Example 160, 2-(3-{2-cyano-1-[4-(7H-pyrrolo[2,3-d]pyrimidin-4-yl)-1H-pyrazol-1-yl]ethyl}pyrrolidin-1-yl)-1,3-benzoxazole-7-carbonitrile]	>11.4	< 50		
N#CCC(C1CCN(c2ccc3c(n2)OCC3)C1)n1cc(-c2ncnc3[nH]ccc23)cn1 (single isomer, unassigned) [Example 155, 3-[1-(2,3-dihydrofuro[2,3-b]pyridin-6-yl)pyrrolidin-3-yl]-3-[4-(7H-pyrrolo[2,3-d]pyrimidin-4-yl)-1H-pyrazol-1-yl]propanenitrile]	5.3	50 to 100		
CCc1cnc(N2CC[C@H]([C@H](CC#N)n3cc(-c4ncnc5[nH]ccc45)cn3)C2)c(C#N)n1 [Example 144, 3-((3S)-3-{(1S)-2-cyano-1-[4-(7H-pyrrolo[2,3-d]pyrimidin-4-yl)-1H-pyrazol-1-yl]ethyl}pyrrolidin-1-yl)-6-ethylpyrazine-2-carbonitrile trifluoroacetate]	>6.9	< 50		
N#CCC(C1CCN(c2ccnc(Cl)n2)C1)n1cc(-c2ncnc3[nH]ccc23)cn1 (single isomer, unassigned) [3, Step 2b]			8.5	< 50
COc1ncnc(N2CC[C@H]([C@H](CC#N)n3cc(-c4ncnc5[nH]ccc45)cn3)C2)c1C#N [Example 98, 4-((S)-3-((S)-1-(4-(7H-pyrrolo[2,3-d]pyrimidin-4-yl)-1H-pyrazol-1-yl) 2-cyanoethyl)pyrrolidin-1-yl)-6-methoxypyrimidine-5-carbonitrile trifluoroacetate]	>9.1	< 50		
N#CC[C@@H]([C@H]1CCN(c2scc(Br)c2C#N)C1)n1cc(-c2ncnc3[nH]ccc23)cn1 [Example 77, 4-bromo-2-((3S)-3-{(1S)-2-cyano-1-[4-(7H-pyrrolo[2,3-d]pyrimidin-4-yl)-1H-pyrazol-1-yl]ethyl}pyrrolidin-1-yl)thiophene-3-carbonitrile]	39.1	< 50		
N#CCC(n1cc(-c2ncnc3[nH]ccc23)cn1)C1(F)CCN(c2nc3cccnc3o2)C1 (single isomer, unassigned) [31, Step 4b, enantiomer 2]	0.8	100 to 500		
N#CCC(C1CCN(c2nc3ccccc3o2)C1)n1cc(-c2ncnc3[nH]ccc23)cn1 (single isomer, unassigned) [9, Step 3b]			6.3	< 50
N#CCC(C1CCN(c2nccc(Cl)n2)C1)n1cc(-c2ncnc3[nH]ccc23)cn1 (single isomer, unassigned) [Example 4b, 3-[1-(4-chloropyrimidin-2-yl)pyrrolidin-3-yl]-3-[4-(7H-pyrrolo[2,3-d]pyrimidin-4-yl)-1H-pyrazol-1-yl]propanenitrile]			3.7	< 50
N#CCC(C1CCN(c2ncc3cc[nH]c3n2)C1)n1cc(-c2ncnc3[nH]ccc23)cn1 (single isomer, unassigned) [Example 16, 3-[4-(7H-pyrrolo[2,3-d]pyrimidin-4-yl)-1H-pyrazol-1-yl]-3-[1-(7H-pyrrolo[2,3-d]pyrimidin-2-yl)pyrrolidin-3-yl]propanenitrile]	11.4	< 50		
N#Cc1cccnc1N1CC[C@H](C(CF)n2cc(-c3ncnc4[nH]ccc34)cn2)C1 (stereo partly drawn) [Example 118, 2-((3S)-3-{2-fluoro-1-[4-(7H-pyrrolo[2,3-d]pyrimidin-4-yl)-1H-pyrazol-1-yl]ethyl}pyrrolidin-1-yl)nicotinonitrile trifluoroacetate]	2.8	< 50		
Cc1cccc(N2CC[C@H]([C@H](CC#N)n3cc(-c4ncnc5[nH]ccc45)cn3)C2)c1C#N [Example 53, 2-((3S)-3-{(1S)-2-cyano-1-[4-(7H-pyrrolo[2,3-d]pyrimidin-4-yl)-1H-pyrazol-1-yl]ethyl}pyrrolidin-1-yl)-6-methylbenzonitrile trifluoroacetate salt]	>7.7	< 50		
N#CCC(C1CCN(c2nc3cncnc3o2)C1)n1cc(-c2ncnc3[nH]ccc23)cn1 (single isomer, unassigned) [Example 18, 3-(1-[1,3]oxazolo[5,4-d]pyrimidin-2-ylpyrrolidin-3-yl)-3-[4-(7H-pyrrolo[2,3-d]pyrimidin-4-yl)-1H-pyrazol-1-yl]propanenitrile]	10.3	50 to 100		
COCc1c(F)cnc(N2CC[C@H]([C@H](CC#N)n3cc(-c4ncnc5[nH]ccc45)cn3)C2)c1C#N [Example 95, 2-((3S)-3-{(1S)-2-cyano-1-[4-(7H-pyrrolo[2,3-d]pyrimidin-4-yl)-1H-pyrazol-1-yl]ethyl}pyrrolidin-1-yl)-5-fluoro-4-(methoxymethyl)nicotinonitrile bis(trifluoroacetate)]	16.4	< 50		
CSc1cccc(N2CCC(C(CC#N)n3cc(-c4ncnc5[nH]ccc45)cn3)C2)c1C#N (racemic) [Example 40, ±2-(3-{2-cyano-1-[4-(7H-pyrrolo[2,3-d]pyrimidin-4-yl)-1H-pyrazol-1-yl]ethyl}pyrrolidin-1-yl)-6-(methylthio)benzonitrile]	7.1	< 50		
CC(F)c1ccnc(N2CC[C@H]([C@H](CC#N)n3cc(-c4ncnc5[nH]ccc45)cn3)C2)c1C#N (stereo partly drawn) [Example 136, 2-((3S)-3-{(1S)-2-cyano-1-[4-(7H-pyrrolo[2,3-d]pyrimidin-4-yl)-1H-pyrazol-1-yl]ethyl}pyrrolidin-1-yl)-4-(1-fluoroethyl)nicotinonitrile trifluoroacetate]	>5	< 50		
N#CCC(C1CCN(c2nc3cc(F)cc(F)c3o2)C1)n1cc(-c2ncnc3[nH]ccc23)cn1 (single isomer, unassigned) [Example 22, 3-[1-(5,7-difluoro-1,3-benzoxazol-2-yl)pyrrolidin-3-yl]-3-[4-(7H-pyrrolo[2,3-d]pyrimidin-4-yl)-1H-pyrazol-1-yl]propanenitrile]	>7	< 50		
